Experimental data from patent US20260335310A1, “GEPOTIDACIN FOR USE IN THE TREATMENT OF BACTERIAL PROSTATITIS” (GLAXOSMITHKLINE INTELLECTUAL PROPERTY DEVELOPMENT LIMITED, priority 2022, published 2026).
Where two headings read alike, the source gives them in different places.

How the values were obtained:
[1] = Total plasma pharmacokinetics of gepotidacin in healthy and E. coli infected rats; format: in vivo, rat; conditions: IV bolus 20 mg/kg; for Vd / half-life / clearance: rat, plasma, iv, 20 mg/kg; for clearance: read-out: CLt,plasma
From the text: (§1) An Escherichia coli prostatitis model in rats was obtained as follows. Four days before microdialysis, rats (n=11) were infected with Escherichia coli ATCC 13441 in the prostatic urethra, to induce E. coli prostatitis, at an inoculum of 10^7 CFU/rat. Healthy rats (n=9) were not infected with E. coli as control.
(§2) The day before the experiment, two CMA/20 probes (membrane length 10 mm, Harvard Apparatus, Courtaboeuf France) were inserted into right jugular vein and the right hind leg muscle of healthy and infected rats under anesthesia and analgesic treatment. In parallel, catheters were inserted into the femoral vein and artery to administer gepotidacin intravenously (IV) and to collect blood samples for determination of total plasma gepotidacin concentrations, respectively. The rats were allowed to recover consciousness, and food was withdrawn for 12 hours.
(§3) On the day of the experiment, healthy control and infected rats were re-anesthetized and a CMA/20 Elite probe (membrane length 4 mm) was inserted into the prostate. All probes were connected to infusion pumps and perfused with Ringer containing a calibrator (((R)-1-((4-(((2,3-dihydro-[1,4]oxathiino[2,3-c]pyridin-7-yl)methyl)amino)piperidin-1-yl)methyl)-1,2-dihydro-3H,8H-2a,5,8a-triazaacenaphthylene-3,8-dione; […]) at a flow rate of 0.5 μL/min with Ringer. After an equilibration period, gepotidacin was administered by IV bolus at a dose of 20 mg/kg. Blood, muscle, and prostate dialysates were collected every 10 minutes for 90 minutes, and then every 30 minutes […]. Seven blood samples were also collected for analysis of gepotidacin pharmacokinetics in total plasma. Gepotidacin concentrations were measured in dialysates and in plasma by LC-MS/MS.
(§4) Pharmacokinetic (PK) parameters were determined in each individual rat by a noncompartmental approach according to standard procedures and with the software Phoenix WinNonLin 7. (Certara, Princeton, NJ) Total unbound body clearance (CLu) was calculated as CLu=dose/AUCu,blood, where AUCu,blood is the total area under the unbound blood concentration-versus-time curve from zero to infinity, equal to the area under the curve from zero to the last measured concentration AUC0-last,u,blood added to the area under the curve from the last measured concentration to infinity AUClast-infinity,u,blood. AUC0-last,u,blood was calculated by linear-logarithmic trapezoidal method. AUClast-infinity,u,blood the area remaining under the curve after the last measured concentration, C(last)u,blood was determined from C(last)u,blood/keblood. The elimination rate constant (keblood) and its corresponding half-life (t1/2,blood) were estimated by least squares fit of the data points (log concentration-time). The linear-logarithmic trapezoidal method was used to compute the area under the unbound blood concentration-versus-time moment curve AUMC0-last,u,blood from zero to the last measured concentration. AUMClast-infinity,u,blood the area remaining under the curve after the last measured concentration was determined from: tlast×C(last)u,blood/keblood+C(last)u,blood/keblood^2. The mean residence time from zero to infinity, MRT0-infinity was determined from AUMC0-infinity,u,blood/AUC0-infinity,u,blood. The volume of distribution (VSSu) was obtained from MRT0-infinity×CLu. The AUCu and t1/2,u in tissues were also estimated by the same procedure.

[2] = In vivo microdialysis of unbound gepotidacin in blood, muscle and prostate of healthy and E. coli infected rats; set-up: species or system rat; conditions: for Kp uu: rat, iv, 20 mg/kg
From the text: The example herein describes microdialysis experiments in E. coli infected rats to measure tissue distribution of unbound gepotidacin. In vivo microdialysis experiments simultaneously determined unbound gepotidacin concentrations in rat prostate, muscle, and blood. It is important to understand the tissue distribution of unbound gepotidacin, especially in the target prostate tissue, since gepotidacin must diffuse through capillary membranes to reach the prostate. An assumption that the plasma concentration of gepotidacin represents a suitable surrogate of prostate concentrations, without prostate tissue confirmation, may lead to erroneous conclusions, especially since the pathogen is localized in the prostate.
as §1, §2, §3
as §4, with “The volume of distribution (VSSu) was obtained from MRT0-infinity×CLu. The AUCu and t1/2,u in tissues were also estimated by the same procedure.” left out

[3] = infected rats (n = 11; E. coli ATCC 13441 prostatitis)
[4] = healthy rats (n = 9), blood, unbound, IV bolus 20 mg/kg
[5] = healthy rats (n = 9), muscle, unbound, IV bolus 20 mg/kg
[6] = healthy rats (n = 9), prostate, unbound, IV bolus 20 mg/kg
[7] = infected rats (n = 11; E. coli ATCC 13441 prostatitis), blood, unbound, IV bolus 20 mg/kg
[8] = infected rats (n = 11; E. coli ATCC 13441 prostatitis), muscle, unbound, IV bolus 20 mg/kg
[9] = infected rats (n = 11; E. coli ATCC 13441 prostatitis), prostate, unbound, IV bolus 20 mg/kg
[10] = prostatitis (infected) rats, FIG. 1C-1D

Question: With O=c1ccc2ncc(=O)n3c2n1C[C@H]3CN1CCC(NCc2cc3c(cn2)OCCC3)CC1 [gepotidacin, (2R)-2-({4-[(3,4-dihydro-2/pyrano[2,3-c]pyridin-6-ylmethyl)amino]-1-piperidinyl}methyl)-1,2-dihydro-3H,8/2a,5,8a-triazaacenaphthylene-3,8-dione] as the compound, how does the AUC ([1]; healthy rats (n = 9)) read?
Answer: Its AUC is 6750 ± 950 ng·h/mL.

Question: And the AUC [1, 3]?
Answer: The AUC was 7870 ± 2380 ng·h/mL.

Question: What about the Vd ([1]; healthy rats (n = 9)) of the same compound?
Answer: The Vd was 4.26 ± 0.851 L/kg.

Question: And the half-life ([1]; healthy rats (n = 9))?
Answer: Its half-life is 1.2 ± 0.19 h.

Question: What about the clearance ([1]; healthy rats (n = 9)) of the same compound?
Answer: The clearance was 50.3 ± 7.1 mL/min/kg.

Question: What about the Vd [1, 3] of the same compound?
Answer: Its Vd is 4.02 ± 0.997 L/kg.

Question: What about the half-life [1, 3] of the same compound?
Answer: The half-life was 1.27 ± 0.165 h.

Question: And the clearance [1, 3]?
Answer: Its clearance is 45.6 ± 12.8 mL/min/kg.

Question: And the “Half-life and Cmax,u in blood, muscle, and prostate, comparison of tissues” value ([2]; healthy control rats)?
Answer: The value was “similar”.

Question: What about the “Unbound concentration time profile in blood” value ([2]; healthy control rats, FIG. 1A, 1B) of the same compound?
Answer: Its value is “biphasic”.

Question: And the “Concentration profiles in prostate and muscle relative to blood” value ([2]; healthy control rats, with the exception of the first time point, FIG. 1A)?
Answer: The value was “almost superimposed with blood concentrations”.

Question: And the “CLu (total unbound body clearance)” value [2, 4]?
Answer: Its value is 44.4 ± 5.1 mL/min/kg.

Question: What about the “Cmax,u” value [2, 4] of the same compound?
Answer: Its value is 10300 ± 2600 ng/mL.

Question: And the “VSSu (volume of distribution)” value [2, 4]?
Answer: The value was 3.967 ± 0.557 L/kg.

Question: And the “t1/2,u” value [2, 4]?
Answer: The value was 1.3 ± 0.317 h.

Question: What about the “Cmax,u” value [2, 5] of the same compound?
Answer: Its value is 8600 ± 2500 ng/mL.

Question: What about the “t1/2,u” value [2, 5] of the same compound?
Answer: Its value is 1.3 ± 0.15 h.

Question: And the “Cmax,u” value [2, 6]?
Answer: Its value is 8200 ± 1900 ng/mL.

Question: What about the “t1/2,u” value [2, 6] of the same compound?
Answer: Its value is 1.13 ± 0.183 h.

Question: And the “Cmax in prostate, infected compared to healthy rats” value ([2]; infected rats)?
Answer: Its value is “slightly lower compared to healthy rats”.

Question: And the “Half-lives, comparison of blood, muscle, and prostate” value ([2]; infected rats)?
Answer: Its value is “the same between blood, muscle, and prostate”.

Question: What about the “CLu (total unbound body clearance)” value [2, 7] of the same compound?
Answer: The value was 35.8 ± 5.5 mL/min/kg.

Question: And the “Cmax,u” value [2, 7]?
Answer: The value was 12300 ± 1900 ng/mL.

Question: What about the “VSSu (volume of distribution)” value [2, 7] of the same compound?
Answer: Its value is 3.344 ± 0.59 L/kg.

Question: And the “t1/2,u” value [2, 7]?
Answer: Its value is 1.43 ± 0.383 h.

Question: What about the “Cmax,u” value [2, 8] of the same compound?
Answer: The value was 9900 ± 3800 ng/mL.

Question: And the “t1/2,u” value [2, 8]?
Answer: Its value is 1.28 ± 0.367 h.

Question: What about the “Cmax,u” value [2, 9] of the same compound?
Answer: Its value is 6600 ± 2700 ng/mL.

Question: And the “t1/2,u” value [2, 9]?
Answer: The value was 1.38 ± 0.15 h.

Question: What about the “Muscle/blood and prostate/blood AUCu ratios, infected compared to healthy rats” value ([2]; infected vs healthy rats, p>0.05, Wilcoxon test, R software) of the same compound?
Answer: Its value is “not significantly different”.

Question: What about the “Unbound concentration time profile in blood” value [2, 10] of the same compound?
Answer: The value was “biphasic”.

Question: What about the “Unbound concentrations in prostate relative to blood” value [2, 10] of the same compound?
Answer: Its value is “slightly lower than in blood”.

Question: What about the Kp uu ([2]; muscle, healthy rats (n = 9), unbound, IV bolus 20 mg/kg, read-out: AUCu muscle/blood) of the same compound?
Answer: Its Kp uu is 1.06 ± 0.17.

Question: What about the Kp uu ([2]; muscle, infected rats (n = 11; E. coli ATCC 13441 prostatitis), unbound, IV bolus 20 mg/kg, read-out: AUCu muscle/blood) of the same compound?
Answer: Its Kp uu is 1.03 ± 0.13.

Question: And the Kp uu ([2]; muscle/blood and prostate/blood, healthy control rats, muscle/blood and prostate/blood, read-out: AUCu ratios)?
Answer: The Kp uu was ~1.

Question: What about the Kp uu ([2]; prostate, healthy rats (n = 9), unbound, IV bolus 20 mg/kg, read-out: AUCu prostate/blood) of the same compound?
Answer: Its Kp uu is 0.89 ± 0.17.

Question: And the Kp uu ([2]; prostate, infected rats (n = 11; E. coli ATCC 13441 prostatitis), unbound, IV bolus 20 mg/kg, read-out: AUCu prostate/blood)?
Answer: Its Kp uu is 0.78 ± 0.21.
